# In EP0414895A1, “OROTATE OF $g(a)-AMINO-$g(b)-PHENYL-BUTYRIC ACID” (NAUCHNO-PROIZVODSTVENNOE OBIEDINENIE "BIOLAR", priority 1989, dated 1990):
# Structures can show the parent of a compound that is named as a salt.
# Columns and labels:
# Mäuse [1] = test: Habituation study: motor activity in actometer on repeated dosing; format: in vivo
# Experimental: Zur Untersuchung der Gewöhnung an die Wirkung der erfindungsgemässen Verbindung wurde die Dynamik der Benehmungseffekte an Mäusen beiderlei Geschlechts untersucht. In jeder Gruppe waren je I2 bis I8 Tiere. Die erfindungsgemässe Verbindung und γ -Amino- β - -phenylbuttersäurehydrochlorid wurden intraperitoneal in Dosen von 75 mg/kg bzw. 48 mg/kg zweimal am Tag eingeführt. Es wurden die Körpermasse, der Einfluss auf die motorische Aktivität (im Aktometer) und auf die emotionelle Reaktivität aud dem Wege der elektrischen Schmerzreizung untersucht. Die Tiere wurden innerhalb von 15 bis 20 Tagen untersucht. […] Der sedative Effekt der beanspruchten Verbindung war während der ganzen Versuchsperiode aufrechterhalten (Tabelle 7).
# Ratten [2] = test: Cold stress at 2°C, rectal temperature, rats; format: in vivo; conditions: for Rektaltemperatur nach I Stunde an der Kälte: 2°C; for Rektaltemperatur nach I Stunde: 1 h after dosing at room temperature
# Experimental: Aus den in Tabellen angeführten Ergebnissen ist zu ersehen, dass die einmalige Einführung der neuen Verbindung die Schwimmdauer der Mäuse und Ratten wesentlich nicht beeinflusst. Nach der 20 Tage langen chronischen Einführung der neuen Verbindung wird die Schwimmdauer hingegen zuverlässig grösser - (Tabelle I7) um das I,5fache im kalten Wasser und um das 2,5fache bei einer Temperatur von 40°C (Tabelle I9) im Vergleich zu γ -Amino- β -phenylbuttersäurehydrochlorid. Auf diese Weise erhöht die chronische Einführung der neuen Verbindung wesentlich die physische Toleranz der Tiere. Ausserdem wurde auch die Toleranz der Tiere gegen den Kältestress bestimmt. Die Untersuchung wurde bei einer Temperatur von 2°C an Mäusen und Ratten durchgeführt, indem jedes Tier abgesondert in der Einzelkammer von I5 x 20 x 20 cm Ausmass untergebracht wurde. Es wurde die Rektaltemperatur vor der Einführung der neuen Verbindung, des γ -Amino- β - phenylbuttersäurehydrochlorids und der physiologischen Kontrollösung eine Stunde nach der Einführung bei Zimmertemperatur und nach I Stunde und 2 Stunden in der Kälte gemessen. Die Versuche wurden an einer Mäusengruppe (I0 Stück) (Tabelle 20) und an einer Rattengruppe (8 Stück) (Tabelle 2I) bei der einmaligen und chronischen Einführung innerhalb von 22 bzw. I6 Tagen einmal pro Tag angestellt.
# Mäuse [3] = test: Kalziumchlorid arrhythmia model, LD50 of Kalziumchlorid; format: in vivo; conditions: Kalziumchlorid i.v. combined with compound 50 mg/kg
# Experimental: Die antiarrhythmischen Eigenschaften der erfindungsgemässen Verbindung wurden auch am Modell der Kalziumchloridarrhythmie untersucht. Der Mäusengruppe (I0 Gruppe) wurde einmalig die Kalziumchloridlösung intravenös im einzelnen und in Kombination mit γ -Amino-β -phenylbuttersäurehydrochlorid eingeführt. Die Dosis der letzteren betrug 50 mg/kg. Es wurde LD₅₀ für Kalziumchlorid bestimmt.
# Mäuse [4] = test: Hypoxia in barochamber (11000 m), survival; format: in vivo
# Experimental: Nach einer der Methoden wurden die Mäuse in der Barokammer untergebracht, die für die Höhe von II000 m über dem Meeresspiegel gehoben wurde. Die Hebung wurde mit einer Geschwindigkeit von 50 m/s verwirklicht. Der atmosphärische Tiefdruck wurde mit Hilfe der elektrischen Vakuumpumpe geschaffen.
# Die beanspruchte Verbindung, Natriumoxybutyrat und Pyrazetam wurden 60 min vor dem Versuch enteral eingeführt. Der Schutzeffekt wurde nach der Überlebensdauer eingeschätzt. Die Angaben sind in Tabelle I0 angeführt.
# Mäuse [5] = test: Hypoxia in hermetically closed vessel, survival; format: in vivo; conditions: closed vessel 80 cm³
# Excerpt: Nach der zweiten Methode wurden die Mäuse in einem hermetisch verschlossenen Gefäss von 80 cm³ Inhalt untergebracht, dabei wurde die Luft nicht abgesaugt, und es wurden keine CO₂-Sorptionsmittel zugegeben. Die Prüfverbindungen wurden I Stunde vor dem Beginn des Versuchs intraperitoneal eingeführt (siehe Tabelle II).
# Mäuse [6] = test: Hemic hypoxia by intraperitoneal Natriumnitrit, survival; format: in vivo; conditions: Natriumnitrit 200 mg/kg i.p. 15 min after compound
# Experimental: Die gemische Hypoxie wurde durch die intraperitoneale und subkutane Verabreichung von Natriumnitrit in einer Dosis von 200 mg/kg den Gruppen zu I0 […] I5 min nach der Einführung der Prüfverbindungen erzeugt. Die Angaben sind in der Tabelle I2 (bei der intraperitonealen Einführung von Natriumnitrit) und Tabelle I3 (bei der subkutanen Einführung von Natriumnitrit) angeführt.
# Ratten [7] = test: Swimming test at 25°C; format: in vivo; conditions: 50,0 mg/kg
# Excerpt: Der Einfluss der beanspruchten Verbindung auf die physische Toleranz der Tiere wurde nach dem Schwimmtest der Mäuse und Ratten untersucht. Die Versuche wurden in einer Wanne von […] Fläche durchgeführt. Die Tiergruppe (8 bis I0 Mäuse oder Ratten) wurde ins Wasser gebracht und es wurde die Zeit der Schwimmfähigkeit bestimmt. Die neue Verbindung und γ -Amino- β - -phenylbuttersäurehydrochlorid wurden enteral und intraperitoneal I Stunde oder 3 Stunden vor dem Schwimmbeginn eingeführt. Die Untersuchung wurde sowohl nach der einmaligen als auch nach der chronischen (innerhalb von 20 Tagen einmal täglich) Einführung der genannten Verbindungen durchgeführt. Die Versuche wurden bei 3 Temperaturen angestellt: 2°C (Tabelle I7), 25°C (Tabelle I8) und 40°C (Tabelle I9).
# Mäuse [8] = test: Ethanol intoxication, survival; format: in vivo
# Excerpt: Es wurde auch der Einfluss der erfindungsgemässen Verbindung auf die durch Athanol erzeugte Intoxikation untersucht. In den Versuchen an Mäusen (in jedem Versuch wurde eine Gruppe von I0 Tieren untersucht) wurde die Überlebensdauer der Tiere bestimmt. […] Athanol wurde I Stunde nach der Einführung der neuen Verbindung verabreicht. Die Ergebnisse dieser Untersuchung sind in der Tabelle 2 dargestellt.
# Ratten [9] = test: Acute toxicity, rats; format: in vivo; conditions: intraperitoneal
# Experimental: Die akute Toxizität der beanspruchten Verbindung wurde an Mäusen und Ratten (die Gruppe aus 9 bis I2 Tieren) bei der intravenösen, intraperitonealen Einführung der beanspruchten Verbindung sowie bei deren Einführung in den Magen bestimmt.
# Es wurden der letale Ausgang, der Allgemeinzustand, die Vergiftungssymptome registriert. LD₅₀ wurde nach der Methode von Lichtfield und Wilcoxon bestimmt. LD₅₀ der neuen Verbindung beträgt für Mäuse bei der intravenösen Einführung 580 mg/kg, bei der intraperitonealen Einführung I450 mg/kg, bei der Einführung in den Magen 4600 mg/kg; für Ratten bei der intraperitonealen Einführung beträgt LD₅₀ 883 mg/kg, bei der Einführung in den Magen - über I500 mg/kg.
# [10] = Solubility (description of the substance); format: physicochemical
# [11] = Storage stability (description of the substance); format: physicochemical
molecule,measurement,setting,value
"NCC(CC(=O)O)c1ccccc1 (stereo not drawn) [γ-Amino-β-phenylbutter-säurehydrochlorid, γ -Amino- β -phenylbuttersäurehydrochlorid, reference compound]",Anzahl der Impulse im Aktometer innerhalb von 45 min,"Mäuse [1]; day 1, 48 mg/kg i.p. twice daily",75±19
same,Anzahl der Impulse im Aktometer innerhalb von 45 min,"Mäuse [1]; day 5, 48 mg/kg i.p. twice daily",223±36
same,Anzahl der Impulse im Aktometer innerhalb von 45 min,"Mäuse [1]; day 10, 48 mg/kg i.p. twice daily",257±38
same,Anzahl der Impulse im Aktometer innerhalb von 45 min,"Mäuse [1]; day 15, 48 mg/kg i.p. twice daily",283±47
same,Rektaltemperatur nach I Stunde an der Kälte,"Ratten [2]; 35 mg/kg chronic, 16 days","23,2±0,2"
same,Rektaltemperatur nach I Stunde,"Ratten [2]; 35 mg/kg chronic, 16 days","30,4±0,3"
same,Einfluss auf LD₅₀ von Kalziumchlorid,Mäuse [3],keinen Einfluss
γ -Amino- β -phenylbuttersäureorotat [Erfindungsgemässe Verbindung],Anzahl der Impulse im Aktometer innerhalb von 45 min,"Mäuse [1]; day 1, 75 mg/kg i.p. twice daily",125±25
same,Anzahl der Impulse im Aktometer innerhalb von 45 min,"Mäuse [1]; day 5, 75 mg/kg i.p. twice daily",108±21
same,Anzahl der Impulse im Aktometer innerhalb von 45 min,"Mäuse [1]; day 10, 75 mg/kg i.p. twice daily",109±47
same,Anzahl der Impulse im Aktometer innerhalb von 45 min,"Mäuse [1]; day 15, 75 mg/kg i.p. twice daily",123±17
same,Überlebensdauer,"Mäuse [4]; 50,0 mg/kg enteral 60 min before","6,2±1,4 min"
same,Überlebensdauer,"Mäuse [4]; 100,0 mg/kg enteral 60 min before","7,5±2,1 min"
same,Überlebensdauer,"Mäuse [4]; 200,0 mg/kg enteral 60 min before","15,2±1,8 min"
same,Überlebensdauer,"Mäuse [5]; 50,0 mg/kg i.p. 1 h before","10,8±1,2 min"
same,Überlebensdauer,"Mäuse [5]; 100,0 mg/kg i.p. 1 h before","15,2±1,4 min"
same,Überlebensdauer,"Mäuse [5]; 200,0 mg/kg i.p. 1 h before","27,6±2,6 min"
same,Überlebensdauer,"Mäuse [6]; 50,0 mg/kg","33,8±1,2 min"
same,Überlebensdauer,"Mäuse [6]; 100,0 mg/kg","53,1±4,1 min"
same,Überlebensdauer,"Mäuse [6]; 200,0 mg/kg","46,8±2,7 min"
same,"Schwimmzeit, Ratten",Ratten [7],"8,2±0,5"
same,Rektaltemperatur vor der Einführung der Verbindung,"Ratten [2]; 50 mg/kg chronic, 16 days","30,7±0,2"
same,Rektaltemperatur nach I Stunde an der Kälte,"Ratten [2]; 50 mg/kg chronic, 16 days","27,0±0,3"
same,Rektaltemperatur vor der Einführung der Verbindung,Ratten [2]; 50 mg/kg single,"30,4±0,3"
same,Rektaltemperatur nach I Stunde,Ratten [2]; 50 mg/kg single,"30,9±0,3"
same,Überlebensdauer nach der Einführung von Äthanol,"Mäuse [8]; 50 mg/kg enteral chronic, 14 days + Äthylalkohol 11 ml/kg","283,8±16 sec"
same,Überlebensdauer nach der Einführung von Äthanol,Mäuse [8]; 50 mg/kg single + Äthylalkohol 11 ml/kg,"213,6±8 sec"
same,Verlängerung der Überlebensdauer der Tiere,"Mäuse [8]; chronic administration, ethanol intoxication",30%
same,LD₅₀,Ratten [9],883 mg/kg
same,Löslichkeit in wässrigen Alkalilösungen,[10]; aqueous alkali solutions,löslich
same,Wasserlöslichkeit,[10]; water,schwer wasserlöslich
same,Beständigkeit bei der Aufbewahrung,[11],beständig
